Results reported in US20230330093A1, “APPLICATION OF NITROGEN-CONTAINING SATURATED HETEROCYCLIC COMPOUND” (SHANGHAI PHARMACEUTICALS HOLDING CO., LTD., priority 2020, published 2023).
“And” between values parts separate entries of the source, which are not always exact repeats. Equal entries are not always repeated. “Also recorded” adds a separate entry of the source.

Tests used:
Type in all cases: in vivo, Macaca mulatta (Rhesus Macaque)
[1] = system: rhesus monkeys with spontaneous chronic kidney disease; assay: Effect on plasma creatinine Cr-P, 8-week administration; conditions: Valsartan group (n = 3)
Protocol: (§1) In the trial, animals were brought in three stages. […] Glomerular filtration rate […]: creatinine (Cr-P), urea nitrogen (BUN) and cystatin (CysC) were detected, and the eGFR value was obtained by calculation. It was performed once before the administration and once every two weeks after the administration. […] ELISA kit was used for NT-proBNP test. [table]

[2] = system: rhesus monkeys with spontaneous chronic kidney disease; assay: Effect on NT-proBNP (ELISA), 8-week administration; conditions: Valsartan group (n = 3)
Text: In the trial, animals were brought in three stages. […] ELISA kit was used for NT-proBNP test. [table]

[3] = system: rhesus monkeys with spontaneous chronic kidney disease (CKD); assay: Effect on UACR (proteinuria), 8-week oral administration; conditions: for MALB: Valsartan group 2.67 mg/kg/time oral (qd wk 1-2, bid wk 3-8); for MALB / UACR change rate / UACR: per animal + Mean ± SD; for UACR change rate: 8 weeks vs baseline, negative = decrease
Protocol: CKD-EPI rating […]-G3b, glomerular filtration rate eGFR: 30 59 ml/min/1.73 m^2; or moderate to severe increase in proteinuria (A2-A3): urine albumin/creatinine ratio (UACR)>15 mg/g-350 mg/g (4-6 hour urine collection), vs. age-matched control group 3±2 mg/g. In the trial, animals were brought in three stages. […] ELISA kit was used for NT-proBNP test. [table]

[4] = system: rhesus monkeys with spontaneous chronic kidney disease; assay: Effect on BUN, 8-week administration; conditions: Valsartan group (n = 3)
Protocol: as §1

[5] = system: rhesus monkeys with spontaneous chronic kidney disease; assay: Effect on glomerular filtration rate eGFRcreat-cys, 8-week administration; conditions: for eGFRcreat-cys / eGFRcreat-cys Change value (8 weeks): Valsartan group (n = 3); for eGFRcreat-cys Change value (8 weeks): 8 weeks − Baseline
Protocol: CKD-EPI rating […]-G3b, glomerular filtration rate eGFR: 30 59 ml/min/1.73 m^2; or moderate to severe increase in proteinuria (A2-A3): urine albumin/creatinine ratio (UACR)>15 mg/g-350 mg/g (4-6 hour urine collection), vs. age-matched control group 3±2 mg/g. In the trial, animals were brought in three stages. […] Glomerular filtration rate […]: creatinine (Cr-P), urea nitrogen (BUN) and cystatin (CysC) were detected, and the eGFR value was obtained by calculation. It was performed once before the administration and once every two weeks after the administration. […] ELISA kit was used for NT-proBNP test. [table] Selected […] in each group: 30 59 ml/min/1.73 m^2. The changes in the glomerular filtration rate of W8 and baseline were analyzed.

[6] = Baseline, single animals and Mean ± SD
[7] = Baseline, single animals and Mean ± SD, mean

CCCCC(=O)N(Cc1ccc(-c2ccccc2-c2nnn[nH]2)cc1)[C@H](C(=O)O)C(C)C [Valsartan, reference compound]
Cr-P ([1]; 2 weeks): 1.12 mg/dL and 1.22 mg/dL
Cr-P ([1]; 2 weeks, mean): 1.15 ± 0.06 mg/dL
Cr-P ([1]; 4 weeks): 1.12 mg/dL and 1.08 mg/dL and 1.26 mg/dL
Cr-P ([1]; 4 weeks, mean): 1.15 ± 0.09 mg/dL
Cr-P ([1]; 6 weeks): 1.11 mg/dL and 1.26 mg/dL
Cr-P ([1]; 6 weeks, mean): 1.16 ± 0.09 mg/dL
Cr-P ([1]; 8 weeks): 1.09 mg/dL and 1.03 mg/dL and 1.26 mg/dL
Cr-P ([1]; 8 weeks, mean): 1.13 ± 0.12 mg/dL
Cr-P [1, 6]: 1.28 mg/dL and 1.31 mg/dL and 1.50 mg/dL
Cr-P [1, 7]: 1.36 ± 0.12 mg/dL
NT-proBNP ([2]; 4 weeks): 179 pg/mL and 260 pg/mL and 285 pg/mL
NT-proBNP ([2]; 4 weeks, mean): 241 ± 56 pg/mL
NT-proBNP ([2]; 8 weeks): 217 pg/mL and 288 pg/mL and 291 pg/mL
NT-proBNP ([2]; 8 weeks, mean): 266 ± 42 pg/mL
NT-proBNP [2, 6]: 211 pg/mL and 500 pg/mL and 394 pg/mL
NT-proBNP [2, 7]: 368 ± 146 pg/mL
MALB ([3]; 8 weeks): 6.2 mg/L and 39.9 mg/L and 19.5 mg/L
MALB ([3]; 8 weeks, mean): 21.9 ± 17.0 mg/L
MALB ([3]; Baseline): 7.1 mg/L and 60.0 mg/L and 25.8 mg/L
MALB ([3]; Baseline, mean): 31.0 ± 26.8 mg/L
UACR change rate ([3]; Valsartan group 2.67 mg/kg/time oral): -41.10% and -69.59% and 35.88%
UACR change rate ([3]; Valsartan group 2.67 mg/kg/time oral, mean): −24.93 ± 54.56%
UACR Benefit assessment ([3]; Valsartan group 2.67 mg/kg/time oral, 8 weeks, per animal): both showed benefit; also recorded: the benefit was not obvious
UACR ([3]; Valsartan group 2.67 mg/kg/time oral, 8 weeks): 22.0 mg/g and 19.3 mg/g and 20.4 mg/g
UACR ([3]; Valsartan group 2.67 mg/kg/time oral, 8 weeks, mean): 20.6 ± 1.3 mg/g
UACR ([3]; Valsartan group 2.67 mg/kg/time oral, Baseline): 15 mg/g and 37.3 mg/g and 63.6 mg/g and 15.0 mg/g and 38.7 ± 24.3 mg/g
UACR of W8 decreased by, compared with the baseline ([3]; Valsartan group, 2 animals (No. 2091, No. 4861)): 40%-70%
W8 UACR after administration ([3]; Valsartan group, one animal with baseline UACR 15 mg/g): 20.4%
BUN ([4]; 4 weeks): 22.2 mg/dL and 29.1 mg/dL and 33.4 mg/dL
BUN ([4]; 4 weeks, mean): 28.2 ± 5.7 mg/dL
BUN ([4]; 8 weeks): 19.5 mg/dL and 33.4 mg/dL and 26.0 mg/dL
BUN ([4]; 8 weeks, mean): 26.3 ± 7.0 mg/dL
BUN ([4]; Baseline2, single animals and Mean ± SD): 19.0 mg/dL and 25.4 mg/dL and 31.2 mg/dL
BUN ([4]; Baseline2, single animals and Mean ± SD, mean): 25.2 ± 6.1 mg/dL
eGFRcreat-cy, Change value ([5]; Valsartan group 2.67 mg/kg/time oral (qd wk 1-2, bid wk 3-8), Baseline, per animal + Mean ± SD): 0 ml/min/1.73 m^2
eGFRcreat-cy, Change value ([5]; Valsartan group 2.67 mg/kg/time oral (qd wk 1-2, bid wk 3-8), Baseline, per animal + Mean ± SD, mean): 0 ± 0 ml/min/1.73 m^2
eGFRcreat-cy, Change value ([5]; Valsartan group 2.67 mg/kg/time oral, 2 weeks vs baseline, per animal + Mean ± SD): 4 ml/min/1.73 m^2 (2×) and 6 ml/min/1.73 m^2
eGFRcreat-cy, Change value ([5]; Valsartan group 2.67 mg/kg/time oral, 2 weeks vs baseline, per animal + Mean ± SD, mean): 5 ± 1 ml/min/1.73 m^2
eGFRcreat-cy, Change value ([5]; Valsartan group 2.67 mg/kg/time oral, 4 weeks vs baseline, per animal + Mean ± SD): 1 ml/min/1.73 m^2 and 7 ml/min/1.73 m^2 and 6 ml/min/1.73 m^2
eGFRcreat-cy, Change value ([5]; Valsartan group 2.67 mg/kg/time oral, 4 weeks vs baseline, per animal + Mean ± SD, mean): 5 ± 3 ml/min/1.73 m^2
eGFRcreat-cy, Change value ([5]; Valsartan group 2.67 mg/kg/time oral, 6 weeks vs baseline, per animal + Mean ± SD): 1 ml/min/1.73 m^2 and 5 ml/min/1.73 m^2 and 7 ml/min/1.73 m^2
eGFRcreat-cy, Change value ([5]; Valsartan group 2.67 mg/kg/time oral, 6 weeks vs baseline, per animal + Mean ± SD, mean): 4 ± 3 ml/min/1.73 m^2
eGFRcreat-cy, Change value ([5]; Valsartan group 2.67 mg/kg/time oral, 8 weeks vs baseline, per animal + Mean ± SD (p<0.01 vs placebo)): 6±2 ml/min/1.73 m^2 and 5 ml/min/1.73 m^2 and 8 ml/min/1.73 m^2
eGFRcreat-cys ([5]; 2 weeks): 58 ml/min/1.73 m^2 and 54 ml/min/1.73 m^2 and 46 ml/min/1.73 m^2
eGFRcreat-cys ([5]; 2 weeks, group mean): 53 ± 6 ml/min/1.73 m^2
eGFRcreat-cys ([5]; 4 weeks): 55 ml/min/1.73 m^2 and 57 ml/min/1.73 m^2 and 46 ml/min/1.73 m^2
eGFRcreat-cys ([5]; 4 weeks, group mean): 53 ± 6 ml/min/1.73 m^2
eGFRcreat-cys ([5]; 6 weeks): 55 ml/min/1.73 m^2 and 47 ml/min/1.73 m^2
eGFRcreat-cys ([5]; 6 weeks, group mean): 53 ± 5 ml/min/1.73 m^2
eGFRcreat-cys ([5]; 8 weeks): 60 ml/min/1.73 m^2 and 59 ml/min/1.73 m^2 and 46 ml/min/1.73 m^2
eGFRcreat-cys Change value (8 weeks) [5]: 5 ml/min/1.73 m^2 and 8 ml/min/1.73 m^2
eGFRcreat-cys Change value (8 weeks) ([5]; group mean): 6 ± 2 ml/min/1.73 m^2
eGFRcreat-cys ([5]; 8 weeks, group mean): 55 ± 8 ml/min/1.73 m^2
eGFRcreat-cys [5, 6]: 55 ml/min/1.73 m^2 and 50 ml/min/1.73 m^2 and 40 ml/min/1.73 m^2
eGFRcreat-cys ([5]; Baseline, single animals and Mean ± SD, group mean): 48 ± 7 ml/min/1.73 m^2
